In experiment [1] the target is T1, Bromodomain-containing protein 4 (Homo sapiens, UniProt O60885). The experiment in a line: (§1) TR-FRET Assay: Compound dilution series were prepared in DMSO via an approximately 3-fold serial dilution. Compound dilutions were added directly into white, low-volume assay plates (Perkin Elmer Proxiplate 384 Plus#6008280) using a Labcyte Echo in conjunction with Labcyte Access and Thermo Multidrop CombinL robotics. Compounds were then suspended in eight microliters (μL) of assay buffer (20 mM Sodium Phosphate, pH 6.0, 50 mM NaCl, 1 mM Ethylenediaminetetraacetic acid disodium salt dihydrate, 0.01% Triton X-100, 1 mM DL-Dithiothreitol) containing His-tagged bromodomain, Europium-conjugated anti-His antibody (Invitrogen PV5596) and Alexa-647-conjugated probe.The final concentration of 1× assay mixture contained 2% DMSO, 12 nM His tagged BRD4 (BDI_K57-E168) and 100 nM probe or 4 nM His tagged BRD4 (BDII_E352-M457) and 30 nM probe, and 1 nM Europium-conjugated anti-His-tag antibody, and compound concentrations in the range of: 49.02 μM-0.61 nM or 0.98 μM-0.15 nM.After a one-hour equilibration at room temperature, TR-FRET ratios were determined using an Envision multilabel plate reader (Ex 340, […]). Background: Time-resolved FRET reads energy transfer from a long-lived donor to a nearby acceptor.

Experiment [2] deals with T1, Bromodomain-containing protein 4. The description is as §1. This is another data set of the same source.

The term Ki denotes a dissociation constant, usually derived from enzyme kinetics or from competition with a known ligand. For the compound `Cc1cccc(C)c1Oc1ccc(C(C)(O)CC(C)C)cc1-c1cn(C)c(=O)c2[nH]c(C(=O)NC(C)(C)C)cc12` (centres undefined), the Ki in experiment [1] worked out at 6690 nM; in experiment [2], 6.6 nM.

For `Cc1cc(F)cc(Cl)c1Oc1ccc(C(C)(C)O)cc1-c1cn(C)c(=O)c2[nH]c(C(=O)NC3(C)CC3(F)F)cc12` (centres undefined), the Ki in experiment [1] came out at 1770 nM; in experiment [2], 7.4 nM.
